Results on two compounds are retold here after patent US20200179392A1, “Idelalisib for Treating Proliferative Vitreoretinopathy and Abnormal Intraocular Neovascularization” (priority 2016, published 2020).

This test deals with PDGFRβ/PI3Kδ/Akt. The test is described as follows: Western blot of vitreous-induced Akt activation restored by mutant PDGFRβ (βΔx) in PDGFRβ-silent RPEM cells. The class given is cell-based, human. The note with it: PDGFRβ-silent RPEM cells expressing βΔx; NAC 10 mM, SU6656 1 μM. Here is the method: 2B. Serum-deprived RPEM cells as defined were treated with RV or PDGF-B for 30 minutes and their lysates were analyzed with indicated antibodies. This is a representative of three independent experiments. βΔx: a truncated PDGFRβ without the PDGF-binding domain. NAC: N-acetyl-cysteine (10 mM), a scavenger of reactive oxygen species (ROS), SU: SU6656 (1 μM), a specific inhibitor of Src family kinases (SFKs).
To make the retrovirus, the pLXSHD-PDGFRβΔx construct was transfected into 293GPG cells with reagent (Lipofectamine 2000; Invitrogen). Virus containing medium was collected for 5 days and then was concentrated (25,000g, 90 minutes, 4° C.). RPEM cells deficient for PDGFRβ were infected by incubation with the concentrated retrovirus in DMEM supplemented with 10% FBS and 8 μg/mL polybrene (hexadimethrine bromide; Sigma) for 24 hours. Successfully infected cells were selected in histidine-free DMEM supplemented with 2 mM L-histidinol dihydrochoride (Sigma, St. Louis, Mo.). Resultant cell lines were termed RPEMPAx; the level of the truncated PDGFRPAx was determined by Western blot analysis with an antiPDGFRβ antibody that recognizes the receptor's intracellular domain.
Cells grown to 90% confluence in wells of 24-well plates were serum starved for 24 hours, and then treated with appropriated agents. […] Signal intensity was determined by densitometry using NIH imageJ software^24, 44, 50.

For `CC(=O)N[C@@H](CS)C(=O)O` [N-acetyl-cysteine], the “effect on restoration of vitreous-induced activation of Akt by mutant PDGFRβ” value is “prevented”.

Consider `CN(C)S(=O)(=O)c1ccc2c(c1)/C(=C/c1cc3c([nH]1)CCCC3)C(=O)N2` [SU6656], for which the “effect on restoration of vitreous-induced activation of Akt by mutant PDGFRβ” value is given as “prevented”.
